One experiment deals with T1, PI3Kα (p110α/p85α) (Homo sapiens, UniProt P42336).
T1 construct: purchased Promega
Description: In vitro PI3K kinase assay (PI3-Kinase Activity ELISA). The format is biochemical. The note with it: incubated 30 min at room temperature. Here is the method: (§1) Purified PI3K Class I Lipid Kinase, including p110α/p85α, p110β/p85α, p110γ, and p110δ/p85α (Promega, Madison, WI, USA), was respectively incubated with B591 for 30 min at room temperature. The activity of PI3K was evaluated using a PI3-Kinase Activity ELISA kit (K-1000s, Echelon, Salt Lake City, UT, USA) according to the manufacture’s instructions. The assay is a competitive ELISA in which the signal is inversely proportional to the amount of PI(3,4,5)P3 produced. After the PI3-Kinase reactions are complete, reaction products are first mixed and incubated with a PI(3,4,5)P3 detector protein, then added to the PI(3,4,5)P3-coated microplate for competitive binding. A peroxidase-linked secondary detector and colorimetric detection is used to detect PI(3,4,5)P3 detector binding to the plate. The colorimetric signal is inversely proportional to the amount of PI(3,4,5)P3 produced by PI3-Kinase. The absorbance was measured at 450 nm with a Multilabel Reader (PerkinElmer, Waltham, MA, USA). ATP competition assays were executed with varying concentrations of ATP, and five concentrations of ATP were 5 μM, 25 μM, 50 μM, 100 μM, and 200 μM respectively. The IC50 values for inhibition of PI3Kβ by B591 were determined at indicated concentrations of ATP. In addition, B591 selectivity was tested against 39 kinases at Life Technologies.

In the next experiment the target is T2, PI3Kβ (p110β/p85α) (Homo sapiens, UniProt P42338).
T2 construct: purchased Promega
The experiment is described as above. The format is biochemical. Here is the method: as §1

The next experiment has as its target T3, PI3Kγ (p110γ) (Homo sapiens, UniProt P48736).
T3 construct: purchased Promega
Described as above. In kind it is biochemical. The note with it: incubated 30 min at room temperature. The method, then: as §1

For another experiment, the target named is T4, PI3Kδ (p110δ/p85α) (Homo sapiens, UniProt O00329).
T4 construct: purchased Promega
The experiment is described as above. The format is biochemical. The note with it: incubated 30 min at room temperature. The method, then:
as §1

The test system of experiment [1] is PIP3/PI(4,5)P2 ratio in HCT116 cells. Description: Cellular PI3K kinase assay (PIP3 and PI(4,5)P2 ELISA). The format is cell-based. The note with it: 10 h treatment. The method, then: Cells were seeded at density of 3 × 10^7 cells/150 mm dish. After treatment with different concentrations of B591 for 10 h, the media was removed and 10 ml of ice-cold 0.5 M TCA was immediately added. Incubate cells on ice for 5 min. Cells were scraped and centrifuged at 3000 rpm for 7 min at 4 ℃. The pellet was resuspended in 3 ml of 5% […] acid/1 mM EDTA, vortexed for 30 s, and centrifuged at 3000 rpm for 5 min. The supernatant was discarded and the cells was washed one more time. Afterward, neutral lipids were extracted adding 3 ml of MeOH:CHCl3 (2:1) and continuously vortexing for 10 min at room temperature. Extracts were centrifuged at 3000 rpm for 5 min, the supernatant was discarded, and this extraction step was repeated one more time. The acidic lipids were extracted adding 2.25 ml MeOH:CHCl3:12 M HCl (80:40:1) with continuous vortexing over 25 min at room temperature. Extracts were centrifuged at 3000 rpm for 5 min and the supernatant was transferred to a new 15 ml tube; 0.75 ml of CHCl3 and 1.35 ml of 0.1 M HCl were added to the supernatant, vortexed, and centrifuged at 3000 rpm for 5 min to separate organic and aqueous phases. […] Once phospholipids were isolated from cells, PIP3 and PI(4,5)P2 levels were measured using ELISA kits (Echelon, K-2500s and K4500) according to the manufacturer’s instructions.

In experiment [2] the test system is CD44high/CD24low population in mammospheres from SUM-159PT cells. The experiment can be described thus: CSCs phenotype assay (CD44/CD24 flow cytometry). The format is cell-based. The note with it: 4 µM. The method, then:
Cells were treated with B591 for 24 h, then the cell suspension was incubated with 20 μl of CD44-APC (#559942, BD Pharmingen, Franklin Lakes, NJ, USA) and 20 μl of CD24-PE (#555428, BD Pharmingen) antibodies for 30 min in dark at 4 ℃. Phenotype was detected by BD FACSCalibur, and data was analyzed with Flowjo. ALDH activity was analyzed with ALDEFLUOR Kit (STEMCELL Technologies, Vancouver, BC, Canada) according to the manufacture’s protocol.

The subject of experiment [3] is eIF4E [nuc:cyto] ratio in SMMC7721, HepG2, MCF7, MDA-MB-231 and A549 cells. The experiment can be described thus: Immunofluorescence and high content assay of eIF4E localization. The note with it: 5 h, five human cancer cell lines. The format is cell-based. The text has this:
The mRNA 5′ cap-binding protein eukaryotic initiation factor 4E (eIF4E) is a key regulator of cap-dependent translation initiation in the cytoplasm. Elevated level of eIF4E has been implicated in oncogenic transformation and tumorigenesis. The availability of eIF4E is tightly controlled through regulated interaction with 4E-BPs. eIF4E is predominantly cytoplasmic in mammalian cells, whereas serum-starvation and/or rapamycin-treatment: conditions that suppress mTOR signaling induces an accumulation of eIF4E within the nucleus. By using immunofluorescence assay, we assessed the effect of B591 on eIF4E subcellular localization of eIF4E. […] Further, five human cancer cell lines (SMMC7721, HepG2, MCF7, MDA-MB-231, and A549) were respectively treated with different concentrations of B591 for 5 h and eIF4E [nuc:cyto] ratios were determined by a high content assay using Thermo Scientific Cellomics ArrayScan VTI HCS.
Cells were seeded in 96-well plates (5,000 cells/well) and treated with DMSO or B591 for 5 h. Cells were then fixed with 4 % paraformaldehyde and followed by permeabilization with 0.1% triton X-100 and blocking in 2% bovine serum albumin in PBS. […] The subcellular location of eIF4E and the eIF4E nuclear–cytoplasmic intensity of each field per well was monitored and analyzed by using ArrayScan® VTI HCS Reader according to manufacturer’s instruction.

Structures are written as SMILES.

T2 sequence (P42338 whole entry): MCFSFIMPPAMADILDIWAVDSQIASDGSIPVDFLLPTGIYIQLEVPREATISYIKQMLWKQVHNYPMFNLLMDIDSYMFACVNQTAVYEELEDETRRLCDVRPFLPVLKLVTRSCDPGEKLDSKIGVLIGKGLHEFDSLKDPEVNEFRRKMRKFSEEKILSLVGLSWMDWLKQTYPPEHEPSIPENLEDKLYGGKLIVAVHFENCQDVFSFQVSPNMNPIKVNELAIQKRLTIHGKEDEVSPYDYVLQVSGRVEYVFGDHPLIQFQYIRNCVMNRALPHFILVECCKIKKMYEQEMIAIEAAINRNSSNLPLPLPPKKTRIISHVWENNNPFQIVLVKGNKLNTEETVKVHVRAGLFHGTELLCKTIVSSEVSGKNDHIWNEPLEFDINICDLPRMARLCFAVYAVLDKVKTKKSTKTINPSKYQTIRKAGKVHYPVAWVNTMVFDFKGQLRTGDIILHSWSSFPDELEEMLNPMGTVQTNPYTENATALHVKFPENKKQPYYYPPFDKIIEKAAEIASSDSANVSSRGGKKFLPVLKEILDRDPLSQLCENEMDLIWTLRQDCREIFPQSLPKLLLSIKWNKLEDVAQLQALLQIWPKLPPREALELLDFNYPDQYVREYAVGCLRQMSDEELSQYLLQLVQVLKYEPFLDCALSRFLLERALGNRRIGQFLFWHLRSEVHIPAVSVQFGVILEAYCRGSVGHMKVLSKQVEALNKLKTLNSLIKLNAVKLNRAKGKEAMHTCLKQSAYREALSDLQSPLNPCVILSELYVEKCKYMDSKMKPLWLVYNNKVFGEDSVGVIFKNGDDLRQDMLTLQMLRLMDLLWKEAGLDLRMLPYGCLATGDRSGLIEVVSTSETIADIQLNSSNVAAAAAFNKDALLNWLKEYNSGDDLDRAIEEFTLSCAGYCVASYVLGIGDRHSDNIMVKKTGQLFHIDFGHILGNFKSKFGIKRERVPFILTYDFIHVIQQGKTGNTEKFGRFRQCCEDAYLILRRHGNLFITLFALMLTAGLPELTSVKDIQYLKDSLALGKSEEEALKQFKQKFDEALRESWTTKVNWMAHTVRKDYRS
T2 sequence (P27986 whole entry partner): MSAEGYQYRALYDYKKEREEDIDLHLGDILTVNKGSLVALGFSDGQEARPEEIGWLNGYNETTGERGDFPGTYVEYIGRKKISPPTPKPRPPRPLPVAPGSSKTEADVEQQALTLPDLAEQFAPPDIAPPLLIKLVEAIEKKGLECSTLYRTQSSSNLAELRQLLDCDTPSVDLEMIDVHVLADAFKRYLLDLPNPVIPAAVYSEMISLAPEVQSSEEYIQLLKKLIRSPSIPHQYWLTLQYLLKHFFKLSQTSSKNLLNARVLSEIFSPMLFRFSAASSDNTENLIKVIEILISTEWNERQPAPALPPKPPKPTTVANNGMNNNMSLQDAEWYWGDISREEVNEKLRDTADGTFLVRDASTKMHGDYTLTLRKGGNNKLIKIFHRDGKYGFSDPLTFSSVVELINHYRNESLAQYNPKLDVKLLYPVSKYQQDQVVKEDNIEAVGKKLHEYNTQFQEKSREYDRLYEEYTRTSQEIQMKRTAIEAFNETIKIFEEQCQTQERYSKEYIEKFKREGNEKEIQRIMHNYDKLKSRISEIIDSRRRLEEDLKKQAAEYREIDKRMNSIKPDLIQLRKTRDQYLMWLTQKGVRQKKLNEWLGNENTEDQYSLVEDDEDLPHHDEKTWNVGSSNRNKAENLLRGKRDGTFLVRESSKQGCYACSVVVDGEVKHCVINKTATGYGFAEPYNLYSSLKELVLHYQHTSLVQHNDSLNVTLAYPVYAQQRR
T1 sequence (P42336 whole entry): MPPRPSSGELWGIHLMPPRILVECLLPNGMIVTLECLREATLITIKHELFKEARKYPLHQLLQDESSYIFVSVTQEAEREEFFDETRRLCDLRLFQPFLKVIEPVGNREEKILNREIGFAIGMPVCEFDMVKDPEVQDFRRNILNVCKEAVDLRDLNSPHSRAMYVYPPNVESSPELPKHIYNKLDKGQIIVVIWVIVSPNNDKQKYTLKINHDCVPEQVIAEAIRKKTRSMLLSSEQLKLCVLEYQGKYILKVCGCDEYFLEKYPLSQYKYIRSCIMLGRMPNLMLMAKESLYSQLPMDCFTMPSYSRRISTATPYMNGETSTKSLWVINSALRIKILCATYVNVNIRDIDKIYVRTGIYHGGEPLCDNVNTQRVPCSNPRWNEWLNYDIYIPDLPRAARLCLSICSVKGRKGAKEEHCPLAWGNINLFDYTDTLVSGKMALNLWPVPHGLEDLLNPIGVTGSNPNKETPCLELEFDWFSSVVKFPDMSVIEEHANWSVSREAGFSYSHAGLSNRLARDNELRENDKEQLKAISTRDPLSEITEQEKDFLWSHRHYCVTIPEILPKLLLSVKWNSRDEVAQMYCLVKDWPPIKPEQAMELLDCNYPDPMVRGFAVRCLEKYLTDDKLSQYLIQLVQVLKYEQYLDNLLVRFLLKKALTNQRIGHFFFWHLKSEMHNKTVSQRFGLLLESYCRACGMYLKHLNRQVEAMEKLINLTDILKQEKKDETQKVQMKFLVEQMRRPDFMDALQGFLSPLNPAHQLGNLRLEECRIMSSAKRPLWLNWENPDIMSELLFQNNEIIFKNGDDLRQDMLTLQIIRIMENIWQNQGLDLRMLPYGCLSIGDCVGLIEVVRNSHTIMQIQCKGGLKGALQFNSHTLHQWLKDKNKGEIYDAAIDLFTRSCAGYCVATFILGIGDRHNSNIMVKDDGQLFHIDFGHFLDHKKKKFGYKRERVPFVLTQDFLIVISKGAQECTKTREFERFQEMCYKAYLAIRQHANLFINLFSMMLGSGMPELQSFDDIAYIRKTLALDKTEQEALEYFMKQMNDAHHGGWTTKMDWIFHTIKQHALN
T1 sequence (P27986 whole entry partner): as the sequence (P27986 whole entry partner) above
T4 sequence (O00329 whole entry): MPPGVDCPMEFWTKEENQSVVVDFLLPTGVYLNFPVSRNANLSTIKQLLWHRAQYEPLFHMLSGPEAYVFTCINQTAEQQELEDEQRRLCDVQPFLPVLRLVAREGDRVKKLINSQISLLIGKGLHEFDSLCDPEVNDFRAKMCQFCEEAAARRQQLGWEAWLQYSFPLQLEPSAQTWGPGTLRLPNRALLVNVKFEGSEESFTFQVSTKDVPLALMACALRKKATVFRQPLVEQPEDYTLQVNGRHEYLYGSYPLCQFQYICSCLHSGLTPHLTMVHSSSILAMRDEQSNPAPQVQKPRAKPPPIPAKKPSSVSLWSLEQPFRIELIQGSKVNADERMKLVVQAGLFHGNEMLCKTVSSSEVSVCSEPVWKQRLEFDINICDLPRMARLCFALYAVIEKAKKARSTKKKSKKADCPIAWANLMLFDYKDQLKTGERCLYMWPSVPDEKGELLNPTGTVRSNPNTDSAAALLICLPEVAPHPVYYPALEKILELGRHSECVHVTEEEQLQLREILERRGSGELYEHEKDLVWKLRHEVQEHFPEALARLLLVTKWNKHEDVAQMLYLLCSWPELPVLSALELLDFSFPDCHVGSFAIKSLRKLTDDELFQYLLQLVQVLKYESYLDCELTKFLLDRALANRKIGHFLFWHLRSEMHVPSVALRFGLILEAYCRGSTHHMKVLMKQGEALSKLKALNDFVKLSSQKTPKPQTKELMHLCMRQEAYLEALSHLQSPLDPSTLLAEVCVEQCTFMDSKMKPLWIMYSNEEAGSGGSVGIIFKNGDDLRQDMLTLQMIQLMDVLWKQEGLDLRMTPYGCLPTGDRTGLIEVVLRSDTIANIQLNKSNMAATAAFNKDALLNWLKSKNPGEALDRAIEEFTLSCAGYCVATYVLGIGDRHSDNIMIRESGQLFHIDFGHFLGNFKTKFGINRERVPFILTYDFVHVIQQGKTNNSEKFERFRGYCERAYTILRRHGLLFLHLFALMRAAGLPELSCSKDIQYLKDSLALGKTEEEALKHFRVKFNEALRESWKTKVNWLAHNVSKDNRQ
T4 sequence (P27986 whole entry partner): as the sequence (P27986 whole entry partner) above
T3 sequence (P48736 whole entry): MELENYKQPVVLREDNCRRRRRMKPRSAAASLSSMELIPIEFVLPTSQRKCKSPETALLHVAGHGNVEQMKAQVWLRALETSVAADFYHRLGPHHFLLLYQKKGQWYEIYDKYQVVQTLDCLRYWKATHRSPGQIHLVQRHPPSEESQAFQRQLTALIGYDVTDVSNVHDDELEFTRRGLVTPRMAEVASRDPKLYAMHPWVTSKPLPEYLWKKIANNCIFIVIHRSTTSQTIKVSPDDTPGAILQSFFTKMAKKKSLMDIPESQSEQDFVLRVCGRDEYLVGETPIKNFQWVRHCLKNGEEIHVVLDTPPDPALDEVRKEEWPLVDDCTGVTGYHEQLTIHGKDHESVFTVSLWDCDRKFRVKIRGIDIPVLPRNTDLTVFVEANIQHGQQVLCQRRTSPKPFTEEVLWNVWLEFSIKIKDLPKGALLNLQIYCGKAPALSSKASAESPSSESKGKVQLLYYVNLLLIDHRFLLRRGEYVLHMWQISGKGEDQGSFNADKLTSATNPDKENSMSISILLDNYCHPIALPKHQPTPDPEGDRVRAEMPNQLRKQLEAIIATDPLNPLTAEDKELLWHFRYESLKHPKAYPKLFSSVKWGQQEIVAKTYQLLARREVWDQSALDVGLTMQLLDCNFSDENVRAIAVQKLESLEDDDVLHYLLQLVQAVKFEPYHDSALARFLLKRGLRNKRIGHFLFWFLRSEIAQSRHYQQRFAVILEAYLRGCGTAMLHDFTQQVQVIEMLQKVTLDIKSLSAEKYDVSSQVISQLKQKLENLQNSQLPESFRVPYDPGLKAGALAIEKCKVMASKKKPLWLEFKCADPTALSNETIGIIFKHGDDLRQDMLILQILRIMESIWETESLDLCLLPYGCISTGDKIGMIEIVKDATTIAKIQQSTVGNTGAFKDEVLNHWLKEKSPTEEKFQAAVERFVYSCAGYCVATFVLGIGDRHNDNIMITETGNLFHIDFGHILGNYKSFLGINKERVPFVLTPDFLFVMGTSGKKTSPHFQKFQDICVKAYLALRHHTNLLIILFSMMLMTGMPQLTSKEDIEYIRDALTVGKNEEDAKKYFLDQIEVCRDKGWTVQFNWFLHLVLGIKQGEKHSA

Turning to `Cc1cc2c(cc1C)[n+](Cc1ccccc1Br)cn2Cc1ccc2c(c1)CCO2.[Br-]` [B591, 3-(2-bromobenzyl)-1-((2,3-dihydrobenzofuran-5-yl)methyl) -5,6-dimethyl-1H-benzo[d]imidazol-3-ium bromide], the IC50 was determined as 1.3 ± 0.27 µM against PI3Kα (p110α/p85α); 0.364 ± 0.13 µM on PI3Kβ (p110β/p85α) (PI3-Kinase Activity ELISA, incubated 30 min at room temperature); 0.107 ± 0.07 µM on PI3Kγ (p110γ); 1.58 ± 0.16 µM against PI3Kδ (p110δ/p85α). Also, the “Mode of inhibition (IC50 for PI3Kβ at various concentrations of ATP)” value on PI3Kβ (p110β/p85α) (ATP 5, 25, 50, 100 and 200 μM) is recorded as “ATP-competitive inhibitor”. Moreover, the “IC50 for decrease of PIP3/PI(4,5)P2 ratio” value in experiment [1] stood at 1.910 µM. In addition, the “Decrease of CD44high/CD24low population” value in experiment [2] was 82%. Moreover, the “eIF4E [nuc:cyto] ratio” value in experiment [3] is “increased eIF4E [nuc:cyto] ratios in all the five cancer cells in a dose-dependent manner”.

The values above are taken from publication PMC6756013, “B591, a novel specific pan-PI3K inhibitor, preferentially targets cancer stem cells” (Oncogene, 2019).
